The values that follow come from patent US4994446A, “Drug system” (Ramot - University Authority for Applied Research and …, priority 1989, dated 1991).

Test [1] deals with NMDA receptor channel. Put plainly: Dissociation of [3H]MK-801-receptor complexes, initiated by 100 μM unlabeled PCP. Format: binding, rat. The method, then:
(§1) Binding assays were performed in triplicate at 25° C. with repeatedly washed rat cerebral cortex membranes (80 μg protein) as described in Biochem. ibid. Assays were carried out in the absence or in the presence of 10^-4 M AP-5, or in the presence of 10 μM MgCl2 together with 1 μM L-glutamate and 1 μM glycine. Nonspecific binding was determined in samples containing 10^-4 M PCP. Data were expressed as the specific binding of [^3 H]MK-801 and analyzed according to the two-step binding model of interactions between noncompetitive blockers and the NMDA receptor channel. The model assumes a first order diffusion of the ligand from the outside into the interior of the channel, followed by association of the ligand with its receptor sites. Under the two extreme conditions employed here, viz., binding of [^3 H]MK-801 in the presence of agonists (unlimited diffusion) and in the absence of agonists (limited diffusion) the time courses of receptor occupation should respectively follow pseudo first order (eq. 1) and first order (eq. 2) kinetics:
Samples were incubated at 25° C. with 8 nM [^3 H] 801 for 2 hr. The dissociation reaction was initiated by the addition of 100 μM unlabeled PCP. […] Reactions were terminated either immediately (zero time) or at the indicated times. Bo --amount of [^3 H]MK-801 bound at zero time. Bt --amount of [^3 H] 801 bound at time t.

Test [2] concerns NMDA receptor channel. Put plainly: [3H]MK-801-receptor association kinetics, repeatedly washed rat cerebral cortex membranes. Format: binding. As to the method: as §1
([RL]eq-[RL])/[RL]eq≡exp.-(k1k2[L]/kb -k- 1)t eq. 1
1-{Kd [RL]/[L](RT ]-[RL ]}=exp.-Kb t eq. 2
where L, RT, RLeq and RL are respectively the ligand, the total number of binding sites, the bound ligand at equilibrium and at time t. ka and kb are the forward and background diffusion constants; k1 and k- 1 are the second order on-rate and the first order off-rate constants for the binding process. The overall equilibrium binding constant (Kd) is given by K- 1·kb /k1·k2.
FIG. 1A illustrates the time course of association of [^3 H] 801 (5 nM) with the NMDA receptor channel. Binding was determined at 25° C. as a function of time in the absence and in the presence of glutamate and glycine or in the presence of AP-5; whereas 1B illustrates the observed time constants (Kobs) derived from the pseudo first order plots of the association of 2, 5 and 8.6 nM [^3 H] 801 in the presence of glutamate and glycine plotted as a function of the ligand concentration. FIG. 1C is a first order plot (eq. 2) of [^3 H] 801-receptor association in the absence of agonists determined with ligand concentrations of 2 nM and 8.6 nM.

Test [3] has as its system NMDA receptor channel. Put plainly: Equilibrium binding of [3H]MK-801 (Scatchard), rat cerebral cortex membranes. The settings on record: for Kd: 4 hr at 25° C., read-out: Kd determined at equilibrium. The method, then: as §1
FIG. 2 left illustrates the equilibrium binding of [^3 H] 801. Binding of [^3 H] 801 as a function of its concentration was assayed after incubation for 4 hr at 25° C. in the absence or in the presence of glutamate and glycine. Also shown are data for [^3 H] 801 binding to the receptor measured after their incubation for 3 hr followed by an additional 1 hr of incubation in the presence of 100 μM AP-5. Data are expressed in the form of Scatchard plot.

The mark [4] stands for this setting: presence of glutamate and glycine.
[5] abbreviates: 5 nM ligand, with glutamate and glycine, 25° C.

The structures appear in SMILES notation. Where a name gives a salt, the structure may show the parent alone.

As for `N[C@H](CCCP(=O)(O)O)C(=O)O` [AP-5, D(-)2-amino-5-phosphovaleric acid], the “effect on rate of [3H]MK-801-receptor dissociation” value in test [1] (100 μM AP-5 by itself, compared to control level) was “decreases the rates”. The “effect on rate of [3H]MK-801-receptor association” value in test [2] (AP-5 (10^-4 M) by itself, compared to control level) is “decreases the rates”. In addition, the “effect on equilibrium binding of preequilibrated [3H]MK-801-receptor complexes” value in test [3] (3 hr incubation, then 1 hr with 100 μM AP-5) was “did not alter the equilibrium binding”.
As to `C[C@]12N[C@H](Cc3ccccc31)c1ccccc12` [[^3 H]MK-801, (+) 5 methyl-10,11 dihydro-5H-dibenzo[a,d]cyclohepten-5,10-imine maleate], the dissociation rate constant in test [1] (setting [4]) was 0.1 min⁻¹. Moreover, the “incubation time to reach equilibrium” value in test [2] (5 nM ligand, absence of exogenous agonists, 25° C.) was more than 6 h. Further, in test [2] (setting [5]), the “association t1/2” value was approximately 7 min. The “time to approach equilibrium” value in test [2] (setting [5]) is 45 to 60 min. For the same compound, the “half times of the association reactions” value in test [2] (absence of exogenous agonists, did not vary with ligand concentration) lay in the range of 60 to 70 min. In addition, in test [2] (presence of glutamate and glycine (FIG. 1B)), the “apparent off-rate time constant (k-1) from association” value was 0.075 min⁻¹. Further, the Kd came out at 4.8 nM in test [2] (presence of glutamate and glycine, read-out: kinetically derived dissociation constant (Kd), ratio of off-rate and on-rate constants); 2.1 nM in test [3] (absence of glutamate and glycine); 4.2 nM in test [3] (setting [4]). Also, in test [2] (with glutamate and glycine vs control without), the “increase in ligand-receptor binding immediately after onset of binding” value is listed as ~ 9 times that of the control.
